One may read the EC50 as the concentration giving half of the maximal effect.

Molecules are shown by their SMILES.

This note sets out measurements from US20250312352A1, “GLP-1R MODULATING COMPOUNDS” (Gilead Sciences, Inc., priority 2021, published 2025).

The target of the assay is T1, GLP-1R (Homo sapiens, UniProt P43220).
T1 construct: host or cells: CHO cells
T1 sequence (P43220 24-463): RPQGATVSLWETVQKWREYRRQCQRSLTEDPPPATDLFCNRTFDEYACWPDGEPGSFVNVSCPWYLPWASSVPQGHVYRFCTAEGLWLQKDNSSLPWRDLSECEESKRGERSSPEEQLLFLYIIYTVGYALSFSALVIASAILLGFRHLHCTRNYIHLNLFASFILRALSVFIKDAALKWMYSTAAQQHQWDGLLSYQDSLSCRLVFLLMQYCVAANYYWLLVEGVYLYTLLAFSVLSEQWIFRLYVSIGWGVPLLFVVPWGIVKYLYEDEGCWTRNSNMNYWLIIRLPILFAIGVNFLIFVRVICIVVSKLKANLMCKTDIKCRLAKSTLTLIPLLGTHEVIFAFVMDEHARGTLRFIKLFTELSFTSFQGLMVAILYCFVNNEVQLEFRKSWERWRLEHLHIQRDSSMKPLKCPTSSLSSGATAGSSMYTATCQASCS
Nature of the assay: GLP-1R activation cAMP assay (Assay 1 or Assay 2). The assay is classed as cell-based. To be noted: cAMP increase in CHO cells stably expressing GLP-1R; compounds run on one of the two cAMP assays. In a few lines:
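CHO cells stably expressing human GLP-1R were incubated 1 h in HBSS/20 mM HEPES/0.1% BSA, then exposed to 10-point agonist dilutions for 30 min at 37 °C. cAMP increase was measured with an HTRF Gs dynamic kit; EC50 from sigmoidal fit of response versus log concentration.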
For the compound `Cn1cc(C#Cc2cnc(COc3cccc(-c4cc(F)c(Cc5nc6c(F)cc(C(=O)O)cc6n5CC5(CF)CC5)cc4F)n3)c(F)c2)cn1` [Example 274, 2-(2,5-difluoro-4-(6-((3-fluoro-5-((1-methyl-1H-pyrazol-4-yl)ethynyl)pyridin-2-yl)methoxy)pyridin-2-yl)benzyl)-4-fluoro-1-((1-(fluoromethyl)cyclopropyl)methyl)-1H-benzo[d]imidazole-6-carboxylic acid], the EC50 was found to be 0.196 nM.

Take `NC(=O)c1ccc(COc2nccc(-c3cc(F)c(Cc4nc5ccc(C(=O)O)cc5n4C[C@@H]4CCO4)cc3F)n2)c(F)c1` [Example 203, (S)-2-(4-(2-((4-carbamoyl-2-fluorobenzyl)oxy)pyrimidin-4-yl)-2,5-difluorobenzyl)-1-(oxetan-2-ylmethyl)-1H-benzo[d]imidazole-6-carboxylic acid]: the EC50 was 1.1 nM. Under `Cn1nncc1C#Cc1ccc(COc2cccc(-c3cc(F)c(Cc4nc5ccc(C(=O)O)cc5n4C[C@@H]4CCO4)cc3F)n2)c(F)n1` [Example 278, (S)-2-(2,5-difluoro-4-(6-((2-fluoro-6-((1-methyl-1H-1,2,3-triazol-5-yl)ethynyl)pyridin-3-yl)methoxy)pyridin-2-yl)benzyl)-1-(oxetan-2-ylmethyl)-1H-benzo[d]imidazole-6-carboxylic acid] stands 0.617 nM; under `NC(=O)c1cc(COc2cccc(-c3cc(F)c(Cc4nc5ccc(C(=O)O)cc5n4C[C@@H]4CCO4)cc3F)n2)cs1` [Example 129, (S)-2-(4-(6-((5-carbamoylthiophen-3-yl)methoxy)pyridin-2-yl)-2,5-difluorobenzyl)-1-(oxetan-2-ylmethyl)-1H-benzo[d]imidazole-6-carboxylic acid], 3.17 nM. Under `O=C(O)c1ccc2nc(Cc3cc(F)c(-c4cccc(OCc5ncc(-c6cnsc6)s5)n4)cc3F)n(C[C@@H]3CCO3)c2c1` [Example 95, (S)-2-(2,5-difluoro-4-(6-((5-(isothiazol-4-yl)thiazol-2-yl)methoxy)pyridin-2-yl)benzyl)-1-(oxetan-2-ylmethyl)-1H-benzo[d]imidazole-6-carboxylic acid] stands 0.08 nM; under `O=C(O)c1ccc2nc(Cc3cc(F)c(-c4cccc(OCc5nc6cccnc6s5)n4)cc3F)n(C[C@@H]3CCO3)c2c1` [Example 26, (S)-2-(2,5-difluoro-4-(6-(thiazolo[5,4-b]pyridin-2-ylmethoxy)pyridin-2-yl)benzyl)-1-(oxetan-2-ylmethyl)-1H-benzo[d]imidazole-6-carboxylic acid], 0.23 nM; under `Cc1cc(Cc2nc3ccc(C(=O)O)cc3n2C[C@@H]2CCO2)c(F)cc1-c1cccc(OCc2ncc(-c3cnn(C(F)F)c3)s2)n1` [Example 331, (S)-2-(4-(6-((5-(1-(difluoromethyl)-1H-pyrazol-4-yl)thiazol-2-yl)methoxy)pyridin-2-yl)-2-fluoro-5-methylbenzyl)-1-(oxetan-2-ylmethyl)-1H-benzo[d]imidazole-6-carboxylic acid], 0.58 nM. For the compound `O=C(O)c1ccc2nc(Cc3cc(F)c(-c4cccc(OCc5ncc(Cl)s5)n4)cc3F)n(C[C@@H]3CCO3)c2c1` [Example 47, (S)-2-(4-(6-((5-chlorothiazol-2-yl)methoxy)pyridin-2-yl)-2,5-difluorobenzyl)-1-(oxetan-2-ylmethyl)-1H-benzo[d]imidazole-6-carboxylic acid], the response was half-maximal at 0.09 nM (EC50).

Compound `N#Cc1ncc(COc2cccc(-c3cc(F)c(Cc4nc5ccc(C(=O)O)cc5n4C[C@@H]4CCO4)cc3F)n2)o1` [Example 168, (S)-2-(4-(6-((2-cyanooxazol-5-yl)methoxy)pyridin-2-yl)-2,5-difluorobenzyl)-1-(oxetan-2-ylmethyl)-1H-benzo[d]imidazole-6-carboxylic acid] had an EC50 of 21.3 nM. Regarding `O=C(O)c1ccc2nc(Cc3cc(F)c(-c4cccc(OCc5ccn(-c6ccccc6)n5)n4)cc3F)n(C[C@@H]3CCO3)c2c1` [Example 120, (S)-2-(2,5-difluoro-4-(6-((1-phenyl-1H-pyrazol-3-yl)methoxy)pyridin-2-yl)benzyl)-1-(oxetan-2-ylmethyl)-1H-benzo[d]imidazole-6-carboxylic acid], the EC50 is 2.84 nM. `N#Cc1ccc(-c2cnc(COc3cccc(-c4cc(F)c(Cc5nc6ccc(C(=O)O)cc6n5C[C@@H]5CCO5)cc4F)n3)s2)cc1` [Example 383, (S)-2-(4-(6-((5-(4-cyanophenyl)thiazol-2-yl)methoxy)pyridin-2-yl)-2,5-difluorobenzyl)-1-(oxetan-2-ylmethyl)-1H-benzo[d]imidazole-6-carboxylic acid] had an EC50 of 0.6 nM. With `Cc1nc(COc2cccc(-c3cc(F)c(Cc4nc5ccc(C(=O)O)cc5n4C[C@@H]4CCO4)cc3F)n2)no1` [Example 17, (S)-2-(2,5-difluoro-4-(6-((5-methyl-1,2,4-oxadiazol-3-yl)methoxy)pyridin-2-yl)benzyl)-1-(oxetan-2-ylmethyl)-1H-benzo[d]imidazole-6-carboxylic acid] the figure was 7 nM. Under `O=C(O)c1ccc2nc(Cc3cc(F)c(-c4cccc(OCc5cncs5)n4)cc3F)n(C[C@@H]3CCO3)c2c1` [Example 167, (S)-2-(2,5-difluoro-4-(6-(thiazol-5-ylmethoxy)pyridin-2-yl)benzyl)-1-(oxetan-2-ylmethyl)-1H-benzo[d]imidazole-6-carboxylic acid] stands 0.87 nM; under `Cc1cnc(COc2cccc(-c3cc(F)c(Cc4nc5ccc(C(=O)O)cc5n4C[C@@H]4CCO4)cc3F)n2)s1` [Example 327, (S)-2-(2,5-difluoro-4-(6-((5-methylthiazol-2-yl)methoxy)pyridin-2-yl)benzyl)-1-(oxetan-2-ylmethyl)-1H-benzo[d]imidazole-6-carboxylic acid], 0.381 nM; under `COCCn1c(Cc2cc(F)c(-c3cccc(OCc4ccc(C(=O)NC5CC5)cc4)n3)cc2F)nc2ccc(C(=O)O)cc21` [Example 249, 2-[[4-[6-[[4-(cyclopropylcarbamoyl)phenyl]methoxy]-2-pyridyl]-2,5-difluoro-phenyl]methyl]-3-(2-methoxyethyl)benzimidazole-5-carboxylic acid], 36.1 nM. With `N#CC1(NC(=O)c2cc(Cl)c(COc3cccc(-c4cc(F)c(Cc5nc6c(F)cc(C(=O)O)cc6n5C[C@@H]5CCO5)cc4F)n3)cn2)CCC1` [Example 190, (S)-2-(4-(6-((4-chloro-6-((1-cyanocyclobutyl)carbamoyl)pyridin-3-yl)methoxy)pyridin-2-yl)-2,5-difluorobenzyl)-4-fluoro-1-(oxetan-2-ylmethyl)-1H-benzo[d]imidazole-6-carboxylic acid] the figure was 0.2 nM.

The compound `COc1nnc(COc2nc(-c3cc(F)c(Cc4nc5ccc(C(=O)O)cc5n4[C@@H]4COCC4(C)C)c(F)c3F)ccc2F)s1` [Example 270, (S)-1-(4,4-dimethyltetrahydrofuran-3-yl)-2-(2,3,6-trifluoro-4-(5-fluoro-6-((5-methoxy-1,3,4-thiadiazol-2-yl)methoxy)pyridin-2-yl)benzyl)-1H-benzo[d]imidazole-6-carboxylic acid] registered an EC50 of 0.191 nM. Turning to `O=C(O)c1cc(F)c2nc(Cc3cc(F)c(-c4cccc(OCc5ncc(-c6cnn(C(F)F)c6)s5)n4)cc3F)n(C[C@@H]3CCO3)c2c1` [Example 85, (S)-2-(4-(6-((5-(1-(difluoromethyl)-1H-pyrazol-4-yl)thiazol-2-yl)methoxy)pyridin-2-yl)-2,5-difluorobenzyl)-4-fluoro-1-(oxetan-2-ylmethyl)-1H-benzo[d]imidazole-6-carboxylic acid], the EC50 is 0.05 nM. With `O=C(O)c1ccc2nc(Cc3cc(F)c(-c4cccc(OCc5nnc(C(F)F)s5)n4)cc3F)n(C[C@@H]3CCO3)c2c1` [Example 15, (S)-2-(4-(6-((5-(difluoromethyl)-1,3,4-thiadiazol-2-yl)methoxy)pyridin-2-yl)-2,5-difluorobenzyl)-1-(oxetan-2-ylmethyl)-1H-benzo[d]imidazole-6-carboxylic acid] the figure was 0.96 nM.

Regarding `O=C(O)c1ccc2nc(Cc3cc(F)c(-c4cccc(OCc5ncc(-c6ccc(Cl)cc6)s5)n4)cc3F)n(C[C@@H]3CCO3)c2c1` [Example 384, (S)-2-(4-(6-((5-(4-chlorophenyl)thiazol-2-yl)methoxy)pyridin-2-yl)-2,5-difluorobenzyl)-1-(oxetan-2-ylmethyl)-1H-benzo[d]imidazole-6-carboxylic acid], the EC50 turned out to be 0.563 nM. With `COCCn1c(Cc2cc(F)c(-c3cccc(OCc4ccc(C#Cc5cncn5C)cc4F)n3)cc2F)nc2ccc(C(=O)O)cc21` [Example 233, 2-(2,5-difluoro-4-(6-((2-fluoro-4-((1-methyl-1H-imidazol-5-yl)ethynyl)benzyl)oxy)pyridin-2-yl)benzyl)-1-(2-methoxyethyl)-1H-benzo[d]imidazole-6-carboxylic acid] the figure was 1.2 nM. `Cc1cc(Cc2nc3ccc(C(=O)O)cc3n2[C@@H]2COCC2(C)C)c(F)cc1-c1cccc(OCc2ncc(Cl)s2)n1` [Example 257, (S)-2-(4-(6-((5-chlorothiazol-2-yl)methoxy)pyridin-2-yl)-2-fluoro-5-methylbenzyl)-1-(4,4-dimethyltetrahydrofuran-3-yl)-1H-benzo[d]imidazole-6-carboxylic acid] gave a concentration for a half-maximal effect (EC50) of 0.583 nM. As for `CC1(C)COC[C@H]1n1c(Cc2cc(F)c(-c3ccc(F)c(OCc4ncc(C(F)(F)F)s4)n3)cc2F)nc2ccc(C(=O)O)cc21` [Example 415, (S)-2-(2,5-difluoro-4-(5-fluoro-6-((5-(trifluoromethyl)thiazol-2-yl)methoxy)pyridin-2-yl)benzyl)-1-(4,4-dimethyltetrahydrofuran-3-yl)-1H-benzo[d]imidazole-6-carboxylic acid], the EC50 worked out at 0.189 nM.

For the compound `O=C(O)c1ccc2nc(Cc3cc(F)c(-c4cccc(OCc5ccc(C#Cc6cncnc6)cc5)n4)cc3F)n(C[C@@H]3CCO3)c2c1` [Example 405, (S)-2-(2,5-difluoro-4-(6-((4-(pyrimidin-5-ylethynyl)benzyl)oxy)pyridin-2-yl)benzyl)-1-(oxetan-2-ylmethyl)-1H-benzo[d]imidazole-6-carboxylic acid], a half-maximal effect (EC50) was put at 0.363 nM.
